Series [1] in a line: log P by HPLC on reversed-phase column (C18), neutral range. The format is physicochemical. The settings on record: ammonium carbonate in water / acetonitrile. As to the method: The log P values were determined according to EEC Directive 79/831 Annex V.A8 by HPLC (high-performance liquid chromatography) on a reversed-phase column (C18) using the following methods: ^[b] The log P value is determined by LC-UV measurement in the neutral range using 79 mg/l ammonium carbonate in water and acetonitrile as mobile phases (linear gradient from 10% acetonitrile to 95% acetonitrile). Calibration was carried out using a homologous series of straight-chain alkan-2-ones (having 3 to 16 carbon atoms) with known log P values. The values between successive alkanones are determined by linear regression.

For series [2], the system named is green peach aphid (Myzus persicae). Kind of series: Comparative experiment: Myzus persicae spray test (MYZUPE). The format is in vivo. The settings on record: 120 h, 5 dat, read-out: % efficacy; for Emax at 4 g/ha: 4 g of ai/ha; for Emax at 20 g/ha: 20 g of ai/ha; for Emax at 100 g/ha: 100 g of ai/ha. As to the method:
Myzus Persicae—Spray Test (MYZUPE)
(§1) • Solvent: 78.0 parts by weight of acetone • 1.5 parts by weight of dimethylformamide • Emulsifier: alkylaryl polyglycol ether
(§2) To produce a suitable active compound formulation, 1 part by weight of active compound is dissolved using the stated parts by weight of solvent and made up with water containing an emulsifier concentration of 1000 ppm until the desired concentration is attained. To produce further test concentrations, the formulation is diluted with emulsifier-containing water.
Disks of Chinese cabbage leaves (Brassica pekinensis) infested by all stages of the green peach aphid (Myzus persicae) are sprayed with an active compound preparation of the desired concentration.
After the desired period of time, the efficacy in % is determined. 100% means that all the aphids have been killed; 0% means that no aphids have been killed.

Series [3] has the same test system. Kind of series: Myzus persicae spray test. The settings on record: foliar, 120 h, after 5 days, Chinese cabbage leaf disks, read-out: efficacy in %. The format is in vivo. The method, then: Myzus Persicae—Spray Test
(§3) • Solvent: 78 parts by weight of acetone • 1.5 parts by weight of dimethylformamide • Emulsifier: alkylaryl polyglycol ether
as §2
Disks of Chinese cabbage leaves (Brassica pekinensis) infested by all stages of the green peach aphid (Myzus persicae) are sprayed with an active compound formulation of the desired concentration.
After 5 days, the efficacy in % is determined. 100% means that all the aphids have been killed; 0% means that no aphids have been killed.

Series [4] deals with green peach aphids (Myzus persicae). Kind of series: Myzus persicae oral test. The format is in vivo. The settings on record: 120 h, after 5 days, read-out: efficacy in %. The method, then: Myzus Persicae—Oral Test • Solvent: 100 parts by weight of acetone To produce a suitable active compound formulation, 1 part by weight of active compound is dissolved using the specified parts by weight of solvent and made up with water until the desired concentration is attained. 50 μl of the active compound preparation are transferred into microtitre plates and made up to a final volume of 200 μl with 150 μl of IPL41 insect medium (33%+15% sugar). Subsequently, the plates are sealed with parafilm, which a mixed population of green peach aphids (Myzus persicae) within a second microtitre plate is able to puncture and imbibe the solution through. After 5 days, the efficacy in % is determined. 100% means that all the aphids have been killed; 0% means that no aphids have been killed.

The subject of series [5] is mustard beetle Phaedon cochleariae. Kind of series: Phaedon cochleariae spray test. The format is in vivo. The settings on record: 100 g/ha; after 7 days; Chinese cabbage leaf disks, larvae. The method, then: Phaedon Cochleariae—Spray Test
as §1, §2
Disks of Chinese cabbage leaves (Brassica pekinensis) are sprayed with an active compound formulation of the desired concentration and, after drying, populated with larvae of the mustard beetle Phaedon cochleariae).
After 7 days, the efficacy in % is determined. 100% means that all the beetle larvae have been killed; 0% means that no beetle larvae have been killed.

Series [6] deals with fall armyworm (Spodoptera frugiperda). Kind of series: Spodoptera frugiperda spray test. The format is in vivo. The settings on record: foliar, 168 h, after 7 days, corn leaf disks, caterpillars, read-out: efficacy in %. The method, then: Spodoptera Fruaiperda—Spray Test
as §1, §2
Leaf disks of corn (Zea mays) are sprayed with an active compound formulation of the desired concentration and, after drying, populated with caterpillars of the fall armyworm (Spodoptera frugiperda).
After 7 days, the efficacy in % is determined. 100% means that all the caterpillars have been killed; 0% means that no caterpillar has been killed.

Series [7] has as its system mustard beetle (Phaedon cochleariae). The experiment in a line: Comparative experiment: Phaedon cochleariae spray test (PHAECO). The settings on record: 168 h, 7 dat, read-out: % efficacy; for Emax at 4 g/ha: 4 g of ai/ha; for Emax at 20 g/ha: 20 g of ai/ha. The format is in vivo. The method, then:
Phaedon Cochleariae—Spray Test (PHAECO)
as §1, §2
Disks of Chinese cabbage leaves (Brassica pekinensis) are sprayed with an active compound formulation of the desired concentration and, after drying, populated with larvae of the mustard beetle (Phaedon cochleariae).
After the desired period of time, the efficacy in % is determined. 100% means that all the beetle larvae have been killed; 0% means that no beetle larvae have been killed.

The subject of series [8] is armyworm (Spodoptera frugiperda). Kind of series: Comparative experiment: Spodoptera frugiperda spray test (SPODFR). The format is in vivo. The settings on record: 168 h, 7 dat, read-out: % efficacy; for Emax at 0.8 g/ha: 0.8 g of ai/ha; for Emax at 4 g/ha: 4 g of ai/ha; for Emax at 20 g/ha: 20 g of ai/ha. As to the method:
Spodoptera Fruaiperda—Spray Test (SPODFR)
as §1, §2
Leaf disks of corn (Zea mays) are sprayed with an active compound formulation of the desired concentration and, after drying, populated with caterpillars of the armyworm (Spodoptera frugiperda).
After the desired period of time, the efficacy in % is determined. 100% means that all the caterpillars have been killed; 0% means that no caterpillar has been killed.

For the next series, the system named is Diabrotica balteata. Kind of series: Diabrotica balteata spray test. The settings on record: topical, 168 h, 100 g/ha (=32 μg/cavity), after 7 days, sprayed germinated wheat grains, beetle larvae, read-out: efficacy in %. The format is in vivo. As to the method:
Diabrotica balteata—Spray Test
as §3, §2
Pre-swollen wheat grains (Triticum aestivum) are incubated in a multiwell plate filled with agar and a little water for one day (5 seed grains per cavity). The germinated wheat grains are sprayed with an active compound formulation of the desired concentration. Subsequently, each cavity is infected with 10−20 beetle larvae of Diabrotica balteata.
After 7 days, the efficacy in % is determined. 100% means that all wheat plants have grown as in the untreated, uninfected control; 0% means that no wheat plant has grown.

The test system of series [9] is greenhouse red spider mite (Tetranychus urticae). Kind of series: Tetranychus urticae spray test, OP-resistant. The format is in vivo. The settings on record: 100 g/ha, after 6 days, bean leaf disks. As to the method:
Tetranychus Urticae—Spray Test, OP-Resistant
as §1, §2
Disks of bean leaves (Phaseolus vulgaris) infested with all stages of the greenhouse red spider mite (Tetranychus urticae) are sprayed with an active compound formulation of the desired concentration.
After 6 days, the efficacy in % is determined. 100% means that all the spider mites have been killed; 0% means that no spider mites have been killed.

Consider `CCSc1c(-c2nc3cc(C(F)(F)F)cnc3n2C)ncc2cc(Br)ccc12` [7-Bromo-4-ethylsulfanyl-3-[3-methyl-6-(trifluoromethyl)imidazo[4,5-b]pyridin-2-yl]isoquinoline], for which, in series [1], the chromatographic logP stood at 4.36.

Regarding `CCS(=O)(=O)c1c(-c2nc3cc(C(F)(F)F)cnc3n2C)ncc2cc(C(F)(F)F)ccc12` [I′-51, reference compound], in series [2], the Emax at 4 g/ha turned out to be 0%, the Emax at 20 g/ha amounted to 0% and the Emax at 100 g/ha was 90%.

In turn, `CCSc1c(-c2nc3cc(C(F)(F)F)cnc3n2C)ncc2cc(C3(C#N)CC3)ccc12` [1-[4-Ethylsulfanyl-3-[3-methyl-6-(trifluoromethyl)imidazo[4,5-b]pyridin-2-yl]-7-isoquinolyl]cyclopropanecarbonitrile] showed a chromatographic logP in [1] of 3.67.

For `CCS(=O)(=O)c1c(-c2nc3cc(C(F)(F)F)cnc3n2C)ncc2cc(C3(C#N)CC3)ccc12` [Example I-1, 1-[4-Ethylsulfonyl-3-[3-methyl-6-(trifluoromethy)imidazo[4,5-b]pyridin-2-yl]-7-isoquinolyl]cyclopropanecarbonitrile], the values for the pest or weed control at 100 g/ha in [3] and in series [6] were 90% and 100%, respectively. Also, the pest or weed control at 0.8 ppm in [4] turned out to be 90%. Moreover, in series [4] (4 ppm), the pest or weed control at 4 ppm is 100%. This molecule also returned an efficacy in % in series [5] of 100%. For the same molecule, the Emax at 4 g/ha in [2] is 70%; in series [7] it was 100%; in series [8], 100%. For the same molecule, the Emax at 20 g/ha in series [2] worked out at 90%; in series [7], 100%; in [8] it was 100%. The Emax at 100 g/ha in series [2] stood at 90%. The Emax at 0.8 g/ha in series [8] stood at 83%. This molecule also came in with a chromatographic logP in series [1] of 3.02.

For the molecule `CCS(=O)(=O)c1c(-c2nc3cc(C(F)(F)F)cnc3n2C)ncc2ccccc12` [I′-47, reference compound], in [7], the Emax at 4 g/ha is 0% and the Emax at 20 g/ha was 67%. In series [8], the Emax at 0.8 g/ha was 0%, the Emax at 4 g/ha was 33% and the Emax at 20 g/ha amounted to 67%.

Turning to `CCS(=O)(=O)c1c(-c2nc3cc(C(F)(F)F)nnc3n2C)ncc2cc(C3(C#N)CC3)ccc12` [Example I-9], the values for the pest or weed control at 100 g/ha (in the series on Diabrotica balteata; in series [3]; in [6]) were 100%, 90% and 100%, respectively. Besides, the pest or weed control at 0.8 ppm in [4] came out at 90%. The molecule further showed an efficacy in % in series [9] of 90%.

For `CCSc1c(-c2nc3cc(C(F)(F)F)cnc3n2C)ncc2cc(CC#N)ccc12` [2-[4-Ethylsulfanyl-3-[3-methyl-6-(trifluoromethyl)imidazo[4,5-b]pyridin-2-yl]-7-isoquinolyl]acetonitrile], the chromatographic logP in [1] worked out at 3.22.

The term chromatographic logP denotes a lipophilicity value derived from retention on a column. Higher therefore signals higher lipophilicity.

These data come from patent US12297196B2, “Condensed bicyclic heterocyclic derivatives as pest control agents” (Bayer Aktiengesellschaft, priority 2019, dated 2025).
